Results taken from the supplement of paper PMC11061612.

Assays:
MKN1 (Gastric Carcinoma) [1] = assay: Bliss excess, mean over the matrix (fraction); higher = more synergy
In short: (§1)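 Cell lines grown in DMEM/F12 or RPMI with 10% FBS were plated in 1536-well plates and held 24 hours at 37°C, 5% CO2 before 72 hours of exposure to two-drug dose matrices, with DMSO typically at 0.2%. CellTiter-Glo 2.0 luminescence gave viability, which was converted to inhibition. Vehicle wells were set to 0 and blank wells to 1. Combination Emax is the second-highest inhibition in the matrix, and Bliss excess is the observed combination effect minus the expected EA + EB − EA·EB, where EA and EB are the single-agent effects.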

[2] = tested on: NCI-H841 (Small Cell Lung Carcinoma); assay: as above
In short: as §1

[3] = tested on: huH-1 (Hepatocellular Carcinoma); assay: combination Emax (second highest fraction inhibited in the dose matrix, 72 h); higher = more inhibition; extreme values may be limits of the assay
In short: as §1

[4] = tested on: HT55 (Colorectal Carcinoma); assay: as above
In short: as §1

5637 (Bladder Carcinoma) = assay: as above
In short: as §1

[5] = tested on: CA46 (Burkitt's Lymphoma); assay: as above
In short: as §1

[6] = tested on: G-402 (Other Solid Carcinomas); assay: as above
In short: as §1

[7] = tested on: LS-411N (Colorectal Carcinoma); assay: as above
In short: as §1

MKN1 (Gastric Carcinoma) [8] = assay: as above
In short: as §1

[9] = tested on: DU-4475 (Breast Carcinoma); assay: as above
In short: as §1

[10] = tested on: Jurkat (T-Lymphoblastic Leukemia); assay: as above
In short: as §1

[11] = tested on: NCI-H841 (Small Cell Lung Carcinoma); assay: as above
In short: as §1

EW-16 (Ewing's Sarcoma) = assay: as above
In short: as §1

[12] = tested on: OACp4C (Esophageal Adenocarcinoma); assay: as above
In short: as §1

KP-N-YN (Neuroblastoma) = assay: as above
In short: as §1

[13] = tested on: CESS (Acute Myeloid Leukemia); assay: as above
In short: as §1
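Throughout, for Bliss excess, mean over the matrix: after 72 h of two-drug dosing.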

Compound	Bliss excess (MKN1 (Gastric Carcinoma) [1])	Bliss excess [2]	combination Emax [3]	combination Emax [4]	combination Emax (5637 (Bladder Carcinoma))	combination Emax [5]	combination Emax [6]	combination Emax [7]	combination Emax (MKN1 (Gastric Carcinoma) [8])	combination Emax [9]	combination Emax [10]	combination Emax [11]	combination Emax (EW-16 (Ewing's Sarcoma))	combination Emax [12]	combination Emax (KP-N-YN (Neuroblastoma))	combination Emax [13]
C[C@@H](c1ccc2nccn2c1)n1nnc2ncc(-c3cnn(C)c3)nc21 [Savolitinib] + CC1(C)CCC(CN2CCN(c3ccc(C(=O)NS(=O)(=O)c4ccc(NCC5CCOCC5)c([N+](=O)[O-])c4)c(Oc4cnc5[nH]ccc5c4)c3)CC2)=C(c2ccc(Cl)cc2)C1 [Venetoclax] (first compound max 1 µM, 7x7, partner max 1 µM)	-0.0402	-0.0333	0.149	0.0925	0.0801	0.0492	0.131	0.0933	0.0845	0.146	0.188	0.201	0.12	0.204	0.569	0.204
CN(CCO)CC[C@H](CSc1ccccc1)Nc1ccc(S(=O)(=O)NC(=O)c2ccc(N3CCC([C@@H](O)c4ccccc4-c4ccc(Cl)cc4)CC3)cc2)cc1S(=O)(=O)C(F)(F)F [AZD4320] + Nc1ccn([C@@H]2O[C@H](CO)[C@@H](O)C2(F)F)c(=O)n1 [Gemcitabine] (first compound max 1 µM, 7x7, partner max 0.3 µM)	0.0005	-0.0317	–	–	–	–	–	–	0.759	–	–	0.322	–	–	–	–
N#Cc1cnc(Nc2cc(NC[C@H]3CNCCO3)c(C(F)(F)F)cn2)cn1 [SRA737] + Nc1ccn([C@@H]2O[C@H](CO)[C@@H](O)C2(F)F)c(=O)n1 [Gemcitabine] (first compound max 10 µM, 7x7, partner max 0.3 µM)	0.0588	0.0776	–	–	–	–	–	–	0.867	–	–	0.818	–	–	–	–
CN(CCO)CC[C@H](CSc1ccccc1)Nc1ccc(S(=O)(=O)NC(=O)c2ccc(N3CCC([C@@H](O)c4ccccc4-c4ccc(Cl)cc4)CC3)cc2)cc1S(=O)(=O)C(F)(F)F [AZD4320] + CC(=O)O[C@H]1C(=O)[C@@]2(C)[C@H]([C@H](OC(=O)c3ccccc3)[C@]3(O)C[C@H](OC(=O)[C@H](O)[C@@H](NC(=O)c4ccccc4)c4ccccc4)C(C)=C1C3(C)C)[C@]1(OC(C)=O)CO[C@@H]1C[C@@H]2O [Paclitaxel] (first compound max 1 µM, 7x7, partner max 3 µM)	0.0566	0.0423	–	–	–	–	–	–	0.91	–	–	0.968	–	–	–	–
C[C@@H](c1ccc2nccn2c1)n1nnc2ncc(-c3cnn(C)c3)nc21 [Savolitinib] + Cc1c2c(nn1C)CSCc1cc(n(C)n1)CSc1cc(c3ccccc3c1)OCCCc1c(C(=O)O)n(C)c3c-2c(Cl)ccc13 [AZD5991] (first compound max 1 µM, 7x7, partner max 1 µM)	-0.0366	-0.0178	0.16	0.187	0.0543	0.0743	0.409	0.188	0.111	0.173	0.575	0.266	0.167	0.283	0.324	0.175
COc1cc2ncnc(Nc3ccc(F)c(Cl)c3)c2cc1OCCCN1CCOCC1 [Gefitinib] + CC(C)n1c(=O)n(C)c2cnc3cc(F)c(-c4ccc(OCCCN5CCCCC5)nc4)cc3c21 [AZD1390] (first compound max 10 µM, 7x7, partner max 0.3 µM)	-0.0669	-0.0837	0.134	0.353	0.495	0.297	0.214	0.0453	0.339	0.157	0.199	0.176	0.176	0.572	0.318	0.195
N#Cc1cnc(Nc2cc(NC[C@H]3CNCCO3)c(C(F)(F)F)cn2)cn1 [SRA737] + O=c1[nH]cc(F)c(=O)[nH]1 [5-Fluorouracil] (first compound max 10 µM, 7x7, partner max 20 µM)	0.0221	-0.0189	–	–	–	–	–	–	0.69	–	–	0.183	–	–	–	–
Cc1nc(Nc2ncc(C(=O)Nc3c(C)cccc3Cl)s2)cc(N2CCN(CCO)CC2)n1 [Dasatinib] + CC(=O)Nc1cccc(-n2c(=O)n(C3CC3)c(=O)c3c(Nc4ccc(I)cc4F)n(C)c(=O)c(C)c32)c1 [Trametinib] (first compound max 2 µM, 7x7, partner max 1 µM)	-0.0121	-0.0356	0.305	0.751	0.973	0.306	0.846	0.834	0.656	1	0.157	0.199	0.281	0.995	0.361	0.527
Cc1cc2ncnn2cc1Nc1ncc2c(n1)n(C1CCOCC1)c(=O)n2C [AZD7648] + COc1cc([C@@H]2c3cc4c(cc3[C@@H](O[C@@H]3O[C@@H]5CO[C@@H](C)O[C@H]5[C@H](O)[C@H]3O)[C@H]3COC(=O)[C@H]23)OCO4)cc(OC)c1O [Etoposide] (first compound max 10 µM, 7x7, partner max 10 µM)	0.0865	0.0261	–	–	–	–	–	–	0.922	–	–	0.441	–	–	0.677	–
N#Cc1cnc(Nc2cc(NC[C@H]3CNCCO3)c(C(F)(F)F)cn2)cn1 [SRA737] + CCc1c2c(nc3ccc(O)cc13)-c1cc3c(c(=O)n1C2)COC(=O)[C@]3(O)CC [SN-38] (first compound max 10 µM, 7x7, partner max 0.3 µM)	0.0303	0.044	–	–	–	–	–	–	0.866	–	–	0.62	–	–	–	–
N#Cc1cnc(Nc2cc(NC[C@H]3CNCCO3)c(C(F)(F)F)cn2)cn1 [SRA737] + C=CCn1c(=O)c2cnc(Nc3ccc(N4CCN(C)CC4)cc3)nc2n1-c1cccc(C(C)(C)O)n1 [AZD1775] (first compound max 10 µM, partner max 1 µM)	0.0971	0.0292	–	–	–	–	–	–	0.916	–	–	0.514	–	–	–	–
